Source: patent US8981131B2, “Tricyclic compounds for the treatment of inflammatory disorders” (Piramal Enterprises Limited, priority 2007, dated 2015)
pIC50: −log10 of the molar value. Counter-ions that a name gives are not always drawn. One block for each compound: values may come before it.

Columns and labels:
Conditions in all cases: LPS (1 μg/mL)-stimulated hPBMCs, 5 hours, ELISA
TNF-α = TNF-α inhibition in LPS-stimulated human peripheral blood mononuclear cells (primary screening); format: cell-based
Experimental: (§1) TNF-α production by lipopolysaccharides (LPS) in hPBMCs was measured according to the method described by Jansky, L. et al (Physiol. Res. 52: 593-598, 2003), incorporated herein by reference. Blood was collected from healthy donors into Potassium EDTA vacutainer tubes (BD vacutainer). The PBMCs were isolated using gradient centrifugation in Histopaque-1077 solution (Sigma). Isolated PBMCs were suspended in RPMI 1640 culture medium (Gibco BRL, Pasley, UK) containing 10% fetal bovine serum (FBS) (Hyclone, Utah, USA), 100 U/ml penicillin (Sigma Chemical Co. St Louis, Mo.) and 100 μg/ml streptomycin (Sigma Chemical Co. St Louis, Mo.). The cell concentration was adjusted to 1×10^6 cells/mL. The viability as determined by trypan blue dye exclusion was uniformly ≧98%. The cell suspension (100 μL) was added to the wells of a 96-well culture plate. Following cell plating, 79 μL of the culture medium and 1 μL of eight different concentrations of the test compounds (final concentration 0.03, 0.1, 0.3, 1, 3, 10, 30, 100 μM) dissolved in DMSO (dimethylsulfoxide, Sigma, Mo., USA) were added to the cells. The final concentration of DMSO was adjusted to 0.5%. The vehicle (0.5% DMSO) was used as control. Rolipram (30, 100 μM) was used as a standard compound. The plates were incubated for 30 min at 37° C. in an atmosphere of 5% CO2. Finally, 20 μL (10 μg/mL) per well of LPS, (Escherchia coli 0127:B8, Sigma Chemical Co., St. Louis, Mo.) was added, for a final concentration of 1 μg/mL. The plates were incubated at 37° C. for 5 hours in an atmosphere of 5% CO2. To assess the cytotoxic effect of the test compounds, the cellular viability test was performed using MTS (3-(4,5-dimethylthiazol-2-yl)-5-(3-carboxymethoxyphenyl)-2-(4-sulfonyl)-2H-tetrazolium) reagent after 5 hours of incubation. Supernatants were harvested and assayed for TNF-α, IL-1β, IL-6 and IL-8 by ELISA as described by the manufacturer. (OptiEIA ELISA sets, BD Biosciences, Pharmingen). The 50% inhibitory concentration (IC50) values were calculated by a nonlinear regression method using GraphPad software (Prism 3.03)

IL-8 = IL-8 released by LPS-stimulated hPBMCs; format: cell-based, Human
Experimental: as §1

IL-6 = IL-6 released by LPS-stimulated hPBMCs; format: cell-based, Human
Experimental: as §1

IL-1β = IL-1β released by LPS-stimulated hPBMCs; format: cell-based, Human
Experimental: as §1

Compound: CC(=O)OCC1(O)C(=O)O[C@H]2C3=C(C)CCC[C@]3(C)CCC21O (stereo partly drawn) [Compound of example 3, ((5aR,9bS)-3,3a-Dihydroxy-5a,9-dimethyl-2-oxo-2,3,3a,4,5,5a,6,7,8,9b-decahydronaphtho[1,2-b]furan-3-yl)methyl acetate]
pIC50 (TNF-α; Homo sapiens, PBMC): 6.30

Compound: CC12CCCC3(C)OC13C1OC(=O)C(CN3CCCCC3)C1(O)CC2 (centres unmarked) [Compound of example 18, 13-(Piperidin-1-yl)-4,5-epoxy-7-hydroxyeudesm-6,12-olide]
pIC50 (IL-8): 5.04
pIC50 (IL-6): 6.05
pIC50 (IL-1β): 6.70
pIC50 (TNF-α): 6.40

Compound: CC1=C2[C@@H]3OC(=O)C(CN4CC[S+]([O-])CC4)C3(O)CC[C@@]2(C)CCC1 (stereo partly drawn) [Compound of example 25, (5aR,9bS)-3a-Hydroxy-5a,9-dimethyl-3-(thiomorpholino-1-oxide-methyl)-3,3a,4,5,5a,6,7,8-octahydronaphtho[1,2-b]furan-2(9bH)-one]
pIC50 (TNF-α): 5.48

Compound: CC1=C2[C@@H]3OC(=O)C(CN4CCN(Cc5ccccc5)CC4)C3(O)CC[C@@]2(C)CCC1 (stereo partly drawn) [Compound of example 27, (5aR,9bS)-3-((4-Benzylpiperazin-1-yl)methyl)-3a-hydroxy-5a,9-dimethyl-3,3a,4,5,5a,6,7,8-octahydronaphtho[1,2-b]furan-2(9bH)-one]
pIC50 (TNF-α; Homo sapiens, PBMC): 6.52

Compound: CC1=C2[C@@H]3OC(=O)C(CN4CCCCC4)C3(O)CC[C@@]2(C)CCC1 (stereo partly drawn) [Compound of example 17, (5aR,9bS)-3a-Hydroxy-5a,9-dimethyl-3-(piperidin-1-ylmethyl)-3,3a,4,5,5a,6,7,8-octahydronaphtho[1,2-b]furan-2(9bH)-one]
pIC50 (IL-8; Homo sapiens): 4.56
pIC50 (IL-6; Homo sapiens): 5.52
pIC50 (IL-1β; Homo sapiens): 6.59
pIC50 (TNF-α; Homo sapiens, PBMC): 6.15

Compound: CC1=C2[C@@H]3OC(=O)C(CN4CCOCC4)C3(O)CC[C@@]2(C)CCC1 (stereo partly drawn) [Compound of example 22, (5aR,9bS)-3a-Hydroxy-5a,9-dimethyl-3-(morpholinomethyl)-3,3a,4,5,5a,6,7,8-octahydronaphtho[1,2-b]furan-2(9bH)-one]
pIC50 (TNF-α; Homo sapiens, PBMC): 6.15

Compound: CC1=C2[C@@H]3OC(=O)C(CN4CCN(Cc5c(C)cccc5C)CC4)C3(O)CC[C@@]2(C)CCC1 (stereo partly drawn) [Compound of example 30, (5aR,9bS)-3-((4-(2,6-dimethylbenzyl)piperazin-1-yl)methyl)-3a-hydroxy-5a,9-dimethyl-3,3a,4,5,5a,6,7,8-octahydronaphtho[1,2-b]furan-2(9bH)-one]
pIC50 (TNF-α; Homo sapiens, PBMC): 6.10

Results, then the compound that gave them:

pIC50 (TNF-α; Homo sapiens, PBMC): 6.10
Compound: CC1=C2[C@@H]3OC(=O)C(CN4CCN(c5ccccn5)CC4)C3(O)CC[C@@]2(C)CCC1 (stereo partly drawn) [Compound of example 53, (5aR,9bS)-3a-Hydroxy-5a,9-dimethyl-3-((4-(pyridin-2-yl)piperazin-1-yl)methyl)-3,3a,4,5,5a,6,7,8-octahydronaphtho[1,2-b]furan-2(9bH)-one]

pIC50 (TNF-α; Homo sapiens, PBMC): 6.52
Compound: CC1=C2[C@@H]3OC(=O)C(CN4CCN(Cc5ccccc5F)CC4)C3(O)CC[C@@]2(C)CCC1 (stereo partly drawn) [Compound of example 33, (5aR,9bS)-3-((4-(2-fluorobenzyl)piperazin-1-yl)methyl)-3a-hydroxy-5a,9-dimethyl-3,3a,4,5,5a,6,7,8-octahydronaphtho[1,2-b]furan-2(9bH)-one]

pIC50 (TNF-α; Homo sapiens, PBMC): 5.96
Compound: CC1=C2[C@@H]3OC(=O)C(CN4CCN(Cc5c(F)cccc5C(F)(F)F)CC4)C3(O)CC[C@@]2(C)CCC1 (stereo partly drawn) [Compound of example 36, (5aR,9bS)-3-((4-(2-fluoro-6-(trifluoromethyl)benzyl)piperazin-1-yl)methyl)-3a-hydroxy-5a,9-dimethyl-3,3a,4,5,5a,6,7,8-octahydronaphtho[1,2-b]furan-2(9bH)-one]

pIC50 (IL-8; Homo sapiens): 4.54
pIC50 (IL-6; Homo sapiens): 5.51
pIC50 (IL-1β; Homo sapiens): 6.51
pIC50 (TNF-α; Homo sapiens, PBMC): 5.92
Compound: CC1=C2[C@H]3OC(=O)C(CNCC4C(=O)O[C@H]5C6=C(C)CCC[C@]6(C)CCC45O)C3(O)CC[C@]2(C)CCC1 (stereo partly drawn) [Compound of example 55, (5aS,9bR)-3a-Hydroxy-3-((((5aR,9bS)-3a-hydroxy-5a,9-dimethyl-2-oxo-2,3,3a,4,5,5a,6,7,8,9b-decahydronaphtho[1,2-b]furan-3-yl)methylamino)methyl)-5a,9-dimethyl-3,3a,4,5,5a,6,7,8-octahydronaphtho[1,2-b]furan-2(9bH)-one hydrochloride]

pIC50 (TNF-α; Homo sapiens, PBMC): 5.70
Compound: COC(=O)CNCC1C(=O)O[C@H]2C3=C(C)CCC[C@]3(C)CCC12O (stereo partly drawn) [Compound of example 58, Methyl 2-(((5aR,9bS)-3a-hydroxy-5a,9-dimethyl-2-oxo-2,3,3a,4,5,5a,6,7,8,9b-decahydronaphtho[1,2-b]furan-3-yl)methylamino)acetate]

pIC50 (TNF-α; Homo sapiens, PBMC): 6.40
Compound: CC1=C2[C@@H]3OC(=O)C(CNC4C(O)C(O)C(CO)O[C@H]4O)C3(O)CC[C@@]2(C)CCC1 (stereo partly drawn) [Compound of example 59, (5aR,9bS)-3a-Hydroxy-5a,9-dimethyl-3-(((2R)-2,4,5-trihydroxy-6-(hydroxymethyl)tetrahydro-2H-pyran-3-ylamino)methyl)-3,3a,4,5,5a,6,7,8-octahydronaphtho[1,2-b]furan-2(9bH)-one]

pIC50 (TNF-α; Homo sapiens, PBMC): 6.70
Compound: CC1=C2[C@@H]3OC(=O)C(CN(C)CC(O)c4ccc(O)cc4)C3(O)CC[C@@]2(C)CCC1 (stereo partly drawn) [Compound of example 60, (5aR,9bS)-3a-Hydroxy-3-(((2-hydroxy-2-(4-hydroxyphenyl)ethyl)(methyl)amino)methyl)-5a,9-dimethyl-3,3a,4,5,5a,6,7,8-octahydronaphtho[1,2-b]furan-2(9bH)-one]

pIC50 (TNF-α; Homo sapiens, PBMC): 6.10
Compound: COc1cc(CN2CCN(CC3C(=O)O[C@H]4C5=C(C)CCC[C@]5(C)CCC34O)CC2)c(CO)c(OC)c1 (stereo partly drawn) [Compound of example 38, (5aR,9bS)-3a-hydroxy-3-((4-(2-(hydroxymethyl)-3,5-dimethoxybenzyl)piperazin-1-yl)methyl)-5a,9-dimethyl-3,3a,4,5,5a,6,7,8-octahydronaphtho[1,2-b]furan-2(9bH)-one]

pIC50 (TNF-α; Homo sapiens, PBMC): 6.15
Compound: CCOC(=O)N1CCN(CC2C(=O)O[C@H]3C4=C(C)CCC[C@]4(C)CCC23O)CC1 (stereo partly drawn) [Compound of example 48, Ethyl 4-(((5aR,9bS)-3a-hydroxy-5a,9-dimethyl-2-oxo-2,3,3a,4,5,5a,6,7,8,9b-decahydronaphtho[1,2-b]furan-3-yl)methyl)piperazine-1-carboxylate hydrochloride]

pIC50 (IL-8; Homo sapiens): 4.93
pIC50 (IL-6; Homo sapiens): 5.68
pIC50 (IL-1β; Homo sapiens): 6.70
pIC50 (TNF-α; Homo sapiens, PBMC): 6.22
Compound: CC1=C2[C@@H]3OC(=O)C(CN4CCN(CC5C(=O)O[C@H]6C7=C(C)CCC[C@]7(C)CCC56O)CC4)C3(O)CC[C@]2(C)CCC1 (stereo partly drawn) [Compound of example 54, (5aS,9bS)-3a-Hydroxy-3-((4-(((5aR,9bS)-3a-hydroxy-5a,9-dimethyl-2-oxo-2,3,3a,4,5,5a,6,7,8,9b-decahydronaphtho[1,2-b]furan-3-yl)methyl)piperazin-1-yl)methyl)-5a,9-dimethyl-3,3a,4,5,5a,6,7,8-octahydronaphtho[1,2-b]furan-2(9bH)-one]
